The text below walks through data of PMC11012799 (Molecules, 2024).

Assay [1] concerns HeLa cells. Nature of the assay: cells. The assay is classed as cell-based, human. The note with it: for IC50: Homo sapiens, 24 h, read-out: IC50 (µM) HeLa; for selectivity index (SI) HeLa: efficacy against HeLa versus normal fibroblasts L929, SI > 1.0 = greater efficacy against cancer cells. The procedure: Considering our previous research and the literature reports on the antitumor activity of aziridine derivatives, aziridine phosphines (1–4) and aziridine phosphine oxides (5–9) were tested to investigate their potential anticancer activity. The in vitro effects on cell viability were assessed using the 3-(4,5-dimethylthiazol-2-yl)-2,5-diphenyltetrazolium bromide (MTT) assay on non-tumorigenic murine fibroblasts (L929) as well as two cancer cell lines: human cervical epithelioid carcinoma (HeLa) cells and endometrial adenocarcinoma (Ishikawa) cells.
Cell viability inhibition: The in vitro effects on cell viability were determined using the 3-(4,5-dimethylthiazol-2-yl)-2,5-diphenyltetrazolium bromide (MTT) assay on non-tumorigenic murine fibroblasts L929 (ATTC®—CCL-1) as well as two cancer cell lines: human cervical epithelioid carcinoma HeLa cells (ATTC®—CCL-2™) and endometrial adenocarcinoma Ishikawa cells (ECACC 99040201). Cells were cultured on 96-well microplates at a density of 1 × 10^4 cells/well following the international in Dulbecco’s Modified Eagle’s Medium (DMEM, Biowest) supplemented with 10% fetal bovine serum (FBS, Biowest, Nuaillé, France), 100 U/mL of penicillin, and 100 μg/mL of streptomycin (Biowest, Nuaillé, France). After overnight incubation at 37 °C and 5% CO2, the growth medium was removed and 100 μL of fresh media with two-fold dilutions of the tested compounds at concentrations of 3.125–100 μM were added. […] Untreated cells in medium were used as a positive control, while a clear culture medium served as a negative control.

Assay [2] relates to Escherichia coli NCTC 8196. Nature of the assay: MIC, two-fold microdilution (EUCAST), E. coli reference strain. The assay is classed as cell-based. As to conditions: Escherichia coli, NCTC8196, 18 h, read-out: MIC (µM) Escherichia coli NCTC 8196. The text has this:
(§1) A panel of reference bacteria, including Escherichia coli NCTC 8196, Staphylococcus aureus ATCC 6538, Klebsiella pneumoniae ATCC 13883, and Pseudomonas aeruginosa NCTC 6749, was used to assess the antibacterial activity of the nine tested aziridine phosphines (1–4) and aziridine phosphine oxides (5–9). The two-fold microdilution method, following EUCAST guidelines, was used to determine a minimal inhibitory concentration (MIC) of each compound, as presented in Table S1.
(§2) Antibacterial activity: The in vitro antibacterial activity of nine tested aziridine phosphines (1–4) and aziridine phosphine oxides (5–9) was evaluated against reference bacterial strains (E. coli NCTC 8196, S. aureus ATCC 6538, K. pneumoniae ATCC 13883, P. aeruginosa NCTC 6749) and 12 S. aureus clinical isolates, including two methicillin-resistant isolates (MRSA, D15 and D17) obtained from infected patients hospitalized at the Oncological Hospital in Lodz (Poland). All strains were kept frozen at −80 °C in Tryptic Soy Broth with 15% glycerol. The minimal inhibitory concentration (MIC) is defined as the lowest concentration of the compound that prevents visible growth of bacteria using the microdilution method followed the EUCAST guidelines. Each compound was added to 96-well microplates in two-fold dilutions at concentrations from 3.125 to 100 μM in Mueller–Hinton broth. […] Bacterial culture was added into wells at a density of 5 × 10^5 CFU mL^−1, and plates were incubated at 37 °C for 18 h. As a positive control, an untreated bacterial culture was used, and a clear culture medium served as a negative control. The optical density at OD600 was measured using the SpectraMax i3 Multi-Mode Platform (Molecular Devices, San Jose, CA, USA). Ciprofloxacin hydrochloride (CIP, Sigma-Aldrich, Darmstadt, Germany) was used as a reference antimicrobial drug.

The subject of assay [3] is Klebsiella pneumoniae ATCC 13883. Nature of the assay: MIC, two-fold microdilution (EUCAST), K. pneumoniae reference strain. The assay is classed as cell-based. As to conditions: Klebsiella pneumoniae, ATCC13883, 18 h, read-out: MIC (µM) Klebsiella pneumoniae ATCC 13883.
Text: as §1, §2

The subject of assay [4] is Pseudomonas aeruginosa NCTC 6749. Nature of the assay: MIC, two-fold microdilution (EUCAST), P. aeruginosa reference strain. The assay is classed as cell-based. As to conditions: Pseudomonas aeruginosa, NCTC6749, 18 h, read-out: MIC (µM) Pseudomonas aeruginosa NCTC 6749.
Text: as §1, §2
For orientation: Broth dilution looks for growth in wells or tubes with falling amounts of substance.

Assay [5] deals with HeLa cells. Nature of the assay: Intracellular ROS measurement (H2DCFDA, flow cytometry). The note with it: 24 h, concentration equal to IC50, H2DCFDA staining. The assay is classed as cell-based, human. On the procedure:
The intracellular ROS levels were evaluated using 2′,7′-dichlorofluorescein diacetate (H2DCFDA) staining. This cell membrane-permeable probe is deacetylated by cellular esterases to a non-fluorescent compound, which is then oxidized by ROS to 2′,7′-dichlorofluorescein (DCF), which remains in cells, is not removed from them, and emits strong fluorescence that can be quantified using a flow cytometer. To evaluate oxidative stress, HeLa cells were treated with the respective compound at a concentration equal to its IC50 value for 24 h, followed by staining with H2DCFDA. […]
Figure 5 Intracellular ROS generation in HeLa cells after treatment with 5 (blue) and 7 (green) for 24 h at 37 °C and 5% CO2. […] Oxidative stress was evaluated using H2DCFDA by flow cytometry. Data are expressed as the mean ± SD of two experiments. Statistical significance in comparison with the untreated control, measured by two-way analysis of variance (ANOVA) followed by Bonferroni multiple comparison test, is indicated by asterisks: (*) p < 0.05.
Reactive oxygen species measurement: The intracellular level of ROS was analysed by staining with 2′,7′–dichlorofluorescein diacetate (H2DCFDA, Sigma-Aldrich, Darmstadt, Germany). […] This product is highly fluorescent and can be detected on a flow cytometer. […]
On the technique in general: In flow cytometry, cells or beads pass a laser one at a time.

Some results are limits rather than exact numbers.

The IC50 is the concentration needed to halve the response being measured. As usually defined, the MIC is the lowest concentration found to suppress growth.

On to `CC(C)C[C@H]1CN1c1ccccc1P(=O)(c1ccccc1)c1ccccc1` [Compound 7], for which the IC50 with HeLa cells [1] turned out to be 7.1 ± 2.6 µM. Further, in the assay with HeLa cells [1], the “selectivity index (SI) HeLa” value is recorded as 2.5. Moreover, the MIC in assay [2], in assay [3] and in assay [4] was > 100 µM in each case. Besides, the “intracellular ROS levels compared to untreated control” value in the assay on HeLa cells [5] is given as “increase in ROS levels”.
As for `CC(C)[C@@H]1CN1c1ccccc1P(=O)(c1ccccc1)c1ccccc1` [Compound 5], the half-maximal inhibitory concentration (IC50) in the assay with HeLa cells [1] came to 6.4 ± 2.1 µM. For the same compound, the “selectivity index (SI) HeLa” value in the assay on HeLa cells [1] was 1.7. Further, the MIC in assay [2], in assay [3] and in assay [4] was > 100 µM in each case. For the same compound, in the assay with HeLa cells [5], the “intracellular ROS levels compared to untreated control” value is given as “the effect was significant only for 5”.
